From ChEMBL document CHEMBL1201862, “PubChem BioAssay data set” (2004)
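Cultured in 96-well plates, cells were exposed to test compound for 48 hours across five concentrations. GI50 = concentration required for 50% inhibition of growth.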 Calls of active or inactive are those of the source. Cut-off read from the data, not from the text of the source: active = GI50 up to about 1.1 µM and inactive = higher.

Key:
Assay in all cases: DTP human tumour cell line panel, 48 h
SN12C = system: SN12C
HOP-62 = system: HOP-62
CCRF-CEM = system: CCRF-CEM
SW-620 = system: SW-620
MOLT-4 = system: MOLT-4
PC-3 = system: PC-3
SF-268 = system: SF-268
SR = system: SR
MDA-MB-231 = system: MDA-MB-231
SNB-19 = system: SNB-19
KM12 = system: KM12
UACC-62 = system: UACC-62
MDA-MB-435 = system: MDA-MB-435
RXF 393 = system: RXF 393
DU-145 = system: DU-145
NCI/ADR-RES = system: NCI/ADR-RES
SNB-75 = system: SNB-75
TK-10 = system: TK-10
K562 = system: K562
CAKI-1 = system: CAKI-1

Compound | GI50 (SN12C) | GI50 (HOP-62) | GI50 (CCRF-CEM) | GI50 (SW-620) | GI50 (MOLT-4) | GI50 (PC-3) | GI50 (SF-268) | GI50 (SR) | GI50 (MDA-MB-231) | GI50 (SNB-19) | GI50 (KM12) | GI50 (UACC-62) | GI50 (MDA-MB-435) | GI50 (RXF 393) | GI50 (DU-145) | GI50 (NCI/ADR-RES) | GI50 (SNB-75) | GI50 (TK-10) | GI50 (K562) | GI50 (CAKI-1)
C1=N\CCN2CCN(CC/N=C\c3ccccc3OCc3cccc(n3)COc3ccccc3/1)CC2 | 10.6 µM (inactive) | 14.6 µM (inactive) | 3.39 µM (inactive) | 2.35 µM (inactive) | 4.6 µM (inactive) | 9.46 µM (inactive) | 2.15 µM (inactive) | 1.71 µM (inactive) | 16.4 µM (inactive) | 9.91 µM (inactive) | 8.83 µM (inactive) | 1.73 µM (inactive) | 0.973 µM (active) | 0.508 µM (active) | 12.8 µM (inactive) | 2.28 µM (inactive) | 9.66 µM (inactive) | 8.3 µM (inactive) | 2.48 µM (inactive) | –
N=C(N)NS(=O)(=O)c1ccc(NC(=O)c2c3ccccc3nc3ccccc23)cc1 | > 100 µM (inactive) | > 100 µM (inactive) | > 100 µM (inactive) | > 100 µM (inactive) | > 100 µM (inactive) | > 100 µM (inactive) | > 100 µM (inactive) | > 100 µM (inactive) | > 100 µM (inactive) | 86.5 µM (inactive) | > 100 µM (inactive) | > 100 µM (inactive) | > 100 µM (inactive) | – | > 100 µM (inactive) | > 100 µM (inactive) | > 100 µM (inactive) | > 100 µM (inactive) | > 10 µM (inactive) | > 100 µM (inactive)
CC(C)(C)OC(=O)C1=C(N)N(Cc2ccccc2)C2(C)C=CC(=O)C=C12 (stereo unspecified) | 8.47 µM (inactive) | 16 µM (inactive) | 2.58 µM (inactive) | 2.37 µM (inactive) | 2.48 µM (inactive) | 7.21 µM (inactive) | 2.18 µM (inactive) | – | 6.98 µM (inactive) | 16.1 µM (inactive) | 6.49 µM (inactive) | 7.93 µM (inactive) | 4.02 µM (inactive) | 2.44 µM (inactive) | 4.04 µM (inactive) | 23.9 µM (inactive) | 13 µM (inactive) | 3.44 µM (inactive) | 2.74 µM (inactive) | 1.83 µM (inactive)
CCCCn1cnc2c(SC)ncnc21 | > 100 µM (inactive) | > 100 µM (inactive) | – | > 100 µM (inactive) | 28.4 µM (inactive) | > 100 µM (inactive) | > 100 µM (inactive) | 3.45 µM (inactive) | > 100 µM (inactive) | > 100 µM (inactive) | > 100 µM (inactive) | > 100 µM (inactive) | > 100 µM (inactive) | > 100 µM (inactive) | > 100 µM (inactive) | > 100 µM (inactive) | > 100 µM (inactive) | > 100 µM (inactive) | 44.8 µM (inactive) | > 100 µM (inactive)
CCSC1=CC2(O)N(CCc3ccc(OC)c(OC)c3)C(=O)CC2(C(=O)OC)CC1=O (stereo unspecified) | 19.6 µM (inactive) | 18.2 µM (inactive) | 34 µM (inactive) | 25.2 µM (inactive) | 23.8 µM (inactive) | 18.7 µM (inactive) | – | 19.6 µM (inactive) | 18.3 µM (inactive) | 92.9 µM (inactive) | 18.5 µM (inactive) | 19.5 µM (inactive) | 21.2 µM (inactive) | – | 18.2 µM (inactive) | 65.9 µM (inactive) | – | 19.5 µM (inactive) | 37.9 µM (inactive) | 70.5 µM (inactive)
CCOC(=O)C1(C#N)C(=O)c2cc[n+](CC[n+]3ccc4c(c3)C(=O)C(C#N)(C(=O)OCC)C4=O)cc2C1=O (stereo unspecified) | > 100 µM (inactive) | – | > 100 µM (inactive) | > 100 µM (inactive) | > 100 µM (inactive) | > 100 µM (inactive) | 96.8 µM (inactive) | – | 60.5 µM (inactive) | > 100 µM (inactive) | > 100 µM (inactive) | > 100 µM (inactive) | > 100 µM (inactive) | > 100 µM (inactive) | > 100 µM (inactive) | > 100 µM (inactive) | > 100 µM (inactive) | – | 86.1 µM (inactive) | > 100 µM (inactive)
CN(O)C(=O)CCC(NC(=O)CCC(N)C(=O)O)C(=O)NCC(=O)O (stereo unspecified) | > 100 µM (inactive) | > 100 µM (inactive) | > 100 µM (inactive) | > 100 µM (inactive) | > 100 µM (inactive) | > 100 µM (inactive) | > 100 µM (inactive) | – | > 100 µM (inactive) | > 100 µM (inactive) | > 100 µM (inactive) | > 100 µM (inactive) | > 100 µM (inactive) | > 100 µM (inactive) | > 100 µM (inactive) | > 100 µM (inactive) | > 100 µM (inactive) | > 100 µM (inactive) | > 100 µM (inactive) | > 100 µM (inactive)
O=C1c2ccccc2-c2nnc3c(c21)-c1ccccc1C3 | > 100 µM (inactive) | – | 89.3 µM (inactive) | 53.2 µM (inactive) | 24.5 µM (inactive) | > 100 µM (inactive) | > 100 µM (inactive) | 12 µM (inactive) | > 100 µM (inactive) | 39 µM (inactive) | > 100 µM (inactive) | 37.6 µM (inactive) | > 100 µM (inactive) | > 100 µM (inactive) | > 100 µM (inactive) | > 100 µM (inactive) | 76 µM (inactive) | – | – | 65.6 µM (inactive)
CC(=O)Oc1ccc(/C=C/C(=O)NCC(NC(=O)/C=C/c2ccc(OC(C)=O)c(OC(C)=O)c2)C(=O)O)cc1OC(C)=O (stereo unspecified) | > 100 µM (inactive) | > 100 µM (inactive) | 32 µM (inactive) | > 100 µM (inactive) | 20.1 µM (inactive) | > 100 µM (inactive) | > 100 µM (inactive) | 33.4 µM (inactive) | > 100 µM (inactive) | > 100 µM (inactive) | > 100 µM (inactive) | > 100 µM (inactive) | > 100 µM (inactive) | > 100 µM (inactive) | > 100 µM (inactive) | > 100 µM (inactive) | – | > 100 µM (inactive) | 56.2 µM (inactive) | > 100 µM (inactive)
O=C1C(Cl)C2(CC(/C=C/c3ccccc3Cl)=NN2c2cccc(S(=O)(=O)O)c2)N1c1nc2ccccc2s1 (stereo unspecified) | 93.5 µM (inactive) | – | 8.11 µM (inactive) | 19.4 µM (inactive) | 10.3 µM (inactive) | 66.4 µM (inactive) | 66.4 µM (inactive) | 1.35 µM (inactive) | 79.8 µM (inactive) | > 100 µM (inactive) | 14.7 µM (inactive) | 18.9 µM (inactive) | 1.5 µM (inactive) | 42.8 µM (inactive) | 21.2 µM (inactive) | > 100 µM (inactive) | 43.5 µM (inactive) | 24.2 µM (inactive) | 2.11 µM (inactive) | 17.2 µM (inactive)
CC(=O)NC(Cc1ccc(O)cc1)C(=O)O (stereo unspecified) | > 100 µM (inactive) | > 100 µM (inactive) | – | > 100 µM (inactive) | > 100 µM (inactive) | > 100 µM (inactive) | > 100 µM (inactive) | – | > 100 µM (inactive) | > 100 µM (inactive) | > 100 µM (inactive) | > 100 µM (inactive) | > 100 µM (inactive) | > 100 µM (inactive) | > 100 µM (inactive) | > 100 µM (inactive) | – | > 100 µM (inactive) | > 100 µM (inactive) | > 100 µM (inactive)
COc1cc(/C=C/C(=O)C2(C(=O)/C=C/c3cc(OC)c(OC)c(OC)c3)CCCCC2)cc(OC)c1OC | 35.2 µM (inactive) | 55.6 µM (inactive) | 34.3 µM (inactive) | 38.3 µM (inactive) | – | 27.2 µM (inactive) | 40.5 µM (inactive) | 19.4 µM (inactive) | 42.9 µM (inactive) | 36.6 µM (inactive) | 26.6 µM (inactive) | 26.2 µM (inactive) | 21.5 µM (inactive) | – | 32.7 µM (inactive) | 32.1 µM (inactive) | 56.4 µM (inactive) | 34.3 µM (inactive) | 51.3 µM (inactive) | 49.4 µM (inactive)
O=c1cc(-c2ccc(O)cc2)oc2cc(O[C@@H]3O[C@H](CO)[C@@H](O)[C@H](O)[C@H]3O)cc(O)c12 [APIGETRIN] | > 100 µM (inactive) | > 100 µM (inactive) | 75.9 µM (inactive) | 72.9 µM (inactive) | 32.5 µM (inactive) | 33.2 µM (inactive) | 51.3 µM (inactive) | 0.0752 µM (active) | 86.1 µM (inactive) | 39.4 µM (inactive) | 13.9 µM (inactive) | 43.3 µM (inactive) | 71.6 µM (inactive) | – | 58.3 µM (inactive) | 42 µM (inactive) | 40.8 µM (inactive) | > 100 µM (inactive) | 77.8 µM (inactive) | 0.239 µM (active)
COc1cc(C=C2C(C)=NN(c3cccc(Cl)c3)C23SCC(=O)N3c2nc3ccccc3s2)ccc1O (stereo unspecified) | 30.1 µM (inactive) | 26 µM (inactive) | 4.56 µM (inactive) | 27.3 µM (inactive) | 15.8 µM (inactive) | 21.3 µM (inactive) | 23.2 µM (inactive) | 13.2 µM (inactive) | 20.8 µM (inactive) | 31.8 µM (inactive) | 30.8 µM (inactive) | 26.7 µM (inactive) | 29.4 µM (inactive) | 29.2 µM (inactive) | 32.4 µM (inactive) | 33 µM (inactive) | – | 35.3 µM (inactive) | 17.3 µM (inactive) | 29.6 µM (inactive)
COC(=O)c1cc(CC2Cc3cc4c(cc3C2=O)CCC4)cc2c1CCC2 (stereo unspecified) | > 100 µM (inactive) | 53.1 µM (inactive) | > 100 µM (inactive) | > 100 µM (inactive) | > 100 µM (inactive) | 15.2 µM (inactive) | > 100 µM (inactive) | > 100 µM (inactive) | > 100 µM (inactive) | > 100 µM (inactive) | > 100 µM (inactive) | 95.1 µM (inactive) | > 100 µM (inactive) | – | > 100 µM (inactive) | 81.5 µM (inactive) | 31.3 µM (inactive) | > 100 µM (inactive) | 39.1 µM (inactive) | 64.6 µM (inactive)
